According to patent publication US11753446B2, “Beta-hairpin peptidomimetics” (POLYPHOR AG, priority 2014, dated 2023):
Where a SMILES comes first, the peptide text is derived from it. Bridges are numbered along the chain shown (N, C = ends). [ ]: non-standard residue; d: D form. Tle = CC(C)(C)[C@H](N)C(=O)O; dDab = NCC[C@@H](N)C(=O)O; Orn = NCCC[C@H](N)C(=O)O; Dab = NCC[C@H](N)C(=O)O; Dap = NC[C@H](N)C(=O)O

What was measured:
[1] = test system: human red blood cells (hRBC); experiment: Hemolysis: hemolytic activity at 100 μg/mL, 1 h at 37° C.; details: red cells of human, 1 h, 100
In short: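 Peptides at 100 μg/mL incubated with washed 20% (v/v) human erythrocytes (~0.9×10^9 cells/mL) for 1 h at 37 °C with shaking. Released hemoglobin read at OD 540 nm in supernatant; 0% and 100% lysis from PBS/0.001% acetic acid and 2.5% Triton X-100.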

[2] = test system: Klebsiella pneumoniae ATCC 13883; type: cell-based; details: ATCC 13883
In short: (§1)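 Peptide activity was tested by NCCLS broth microdilution with slight modifications. Bacteria were diluted in cation-adjusted Mueller-Hinton II broth to approximately 10^6 CFU/mL against a 0.5 McFarland standard. They were then exposed to two-fold serial peptide dilutions in broth containing 0.002% final polysorbate 80.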

[3] = test system: Acinetobacter baumannii DSM 30008; type: cell-based; details: DSM 30008
In short: as §1

[4] = test system: Escherichia coli ATCC 25922; type: cell-based; details: ATCC 25922
In short: as §1

Structure (SMILES)	Hemolysis at 100 μg/mL [1] [%]	Klebsiella pneumoniae ATCC 13883 MIC [2] [µg/mL]	Acinetobacter baumannii DSM 30008 MIC [3] [µg/mL]	Escherichia coli ATCC 25922 MIC [4] [µg/mL]
CC(C)C[C@@H]1NC(=O)[C@H](CCCNC(=N)N)NC(=O)[C@H]2CCCN2C(=O)[C@H](C(C)C)NC(=O)[C@@H]2CSSC[C@H](NC1=O)C(=O)N[C@@H](Cc1ccc(O)cc1)C(=O)N[C@@H](C)C(=O)N[C@@H](CCN)C(=O)N[C@H](CCN)C(=O)N[C@@H](CCN)C(=O)N[C@@H](Cc1c[nH]c3ccccc13)C(=O)N[C@@H](C)C(=O)N[C@@H](C(C)C)C(=O)N2 [Example 2, cyclo(-Leu-Cys-Tyr-Ala-Dab-^DDab-Dab-Trp-Ala-Val-Cys-Val-^DPro-Arg-)] (HELM PEPTIDE1{A.[Dab].[NCC[C@@H](N[*:1])C(=O)[*:2]].[Dab].W.A.V.C.V.[dP].R.L.C.Y}$PEPTIDE1,PEPTIDE1,8:R3-13:R3|PEPTIDE1,PEPTIDE1,1:R1-14:R2$$$V2.0)	5	2	2.5	4
CC(C)C[C@@H]1NC(=O)[C@H](CCN)NC(=O)[C@@H](CCN)NC(=O)[C@H](CO)NC(=O)[C@H](C)NC(=O)[C@H](Cc2ccc(O)cc2)NC(=O)[C@@H]2CSSC[C@H](NC(=O)[C@H](Cc3ccc(O)cc3)NC(=O)[C@H](CO)NC1=O)C(=O)N[C@@H](CCCN)C(=O)N[C@H](CCN)C(=O)N[C@@H](CCN)C(=O)N[C@@H](Cc1c[nH]c3ccccc13)C(=O)N2 [Example 38, cyclo(-Leu-Ser-Tyr-Cys-Orn-^DDab-Dab-Trp-Cys-Tyr-Ala-Ser-^DDab-Dab-)] (HELM PEPTIDE1{A.S.[NCC[C@@H](N[*:1])C(=O)[*:2]].[Dab].L.S.Y.C.[Orn].[NCC[C@@H](N[*:1])C(=O)[*:2]].[Dab].W.C.Y}$PEPTIDE1,PEPTIDE1,8:R3-13:R3|PEPTIDE1,PEPTIDE1,1:R1-14:R2$$$V2.0)	1	2	3	2
CC(C)C[C@@H]1NC(=O)[C@H](CCCNC(=N)N)NC(=O)[C@@H](CCN)NC(=O)[C@H](C(C)C)NC(=O)[C@@H]2CSSC[C@H](NC1=O)C(=O)N[C@@H](Cc1ccc(O)cc1)C(=O)N[C@@H](CCC(N)=O)C(=O)N[C@@H](CCCN)C(=O)N[C@H](CCN)C(=O)N[C@@H](CCN)C(=O)N[C@@H](Cc1c[nH]c3ccccc13)C(=O)N[C@@H](CO)C(=O)N[C@@H](Cc1ccc(O)cc1)C(=O)N2 [Example 62, cyclo(-Leu-Cys-Tyr-Gln-Orn-^DDab-Dab-Trp-Ser-Tyr-Cys-Val-^DDab-Arg-)] (HELM PEPTIDE1{C.V.[NCC[C@@H](N[*:1])C(=O)[*:2]].R.L.C.Y.Q.[Orn].[NCC[C@@H](N[*:1])C(=O)[*:2]].[Dab].W.S.Y}$PEPTIDE1,PEPTIDE1,1:R3-6:R3|PEPTIDE1,PEPTIDE1,1:R1-14:R2$$$V2.0)	2	1	0.625	0.375
CC(C)C[C@@H]1NC(=O)[C@H](CCCNC(=N)N)NC(=O)[C@@H](CCN)NC(=O)[C@H](C(C)C)NC(=O)[C@@H]2CSSC[C@H](NC1=O)C(=O)N[C@@H](Cc1ccc(O)cc1)C(=O)N[C@@H](CC(N)=O)C(=O)N[C@@H](CCCN)C(=O)N[C@H](CCN)C(=O)N[C@@H](CCN)C(=O)N[C@@H](Cc1c[nH]c3ccccc13)C(=O)N[C@@H](CO)C(=O)N[C@@H](Cc1ccc(O)cc1)C(=O)N2 [Example 10, cyclo(-Leu-Cys-Tyr-Asn-Orn-^DDab-Dab-Trp-Ser-Tyr-Cys-Val-^DDab-Arg-)] (HELM PEPTIDE1{C.V.[NCC[C@@H](N[*:1])C(=O)[*:2]].R.L.C.Y.N.[Orn].[NCC[C@@H](N[*:1])C(=O)[*:2]].[Dab].W.S.Y}$PEPTIDE1,PEPTIDE1,1:R3-6:R3|PEPTIDE1,PEPTIDE1,1:R1-14:R2$$$V2.0)	1	1	0.5	0.5
CC(C)C[C@@H]1NC(=O)[C@H](CCCNC(=N)N)NC(=O)[C@@H](CCN)NC(=O)[C@H](C)NC(=O)[C@@H]2CSSC[C@H](NC1=O)C(=O)N[C@@H](Cc1ccc(O)cc1)C(=O)N[C@@H](CC(N)=O)C(=O)N[C@@H](CCCN)C(=O)N[C@H](CCN)C(=O)N[C@@H](CCN)C(=O)N[C@@H](Cc1c[nH]c3ccccc13)C(=O)N[C@@H](CO)C(=O)N[C@@H](Cc1ccc(O)cc1)C(=O)N2 [Example 71, cyclo(-Leu-Cys-Tyr-Asn-Orn-^DDab-Dab-Trp-Ser-Tyr-Cys-Ala-^DDab-Arg-)] (HELM PEPTIDE1{A.[NCC[C@@H](N[*:1])C(=O)[*:2]].R.L.C.Y.N.[Orn].[NCC[C@@H](N[*:1])C(=O)[*:2]].[Dab].W.S.Y.C}$PEPTIDE1,PEPTIDE1,5:R3-14:R3|PEPTIDE1,PEPTIDE1,1:R1-14:R2$$$V2.0)	1	1	1.5	1.5
CC(C)C[C@@H]1NC(=O)[C@H](CCCNC(=N)N)NC(=O)[C@@H](CCN)NC(=O)[C@H](Cc2ccc(O)cc2)NC(=O)[C@@H]2CSSC[C@H](NC1=O)C(=O)N[C@@H](Cc1ccc(O)cc1)C(=O)N[C@@H](C(C)C)C(=O)N[C@@H](CCCN)C(=O)N[C@H](CCN)C(=O)N[C@@H](CCN)C(=O)N[C@@H](Cc1c[nH]c3ccccc13)C(=O)N[C@@H](Cc1ccc(O)cc1)C(=O)N[C@@H](Cc1ccc(O)cc1)C(=O)N2 [Example 22, cyclo(-Leu-Cys-Tyr-Val-Orn-^DDab-Dab-Trp-Tyr-Tyr-Cys-Tyr-^DDab-Arg-)] (HELM PEPTIDE1{C.Y.V.[Orn].[NCC[C@@H](N[*:1])C(=O)[*:2]].[Dab].W.Y.Y.C.Y.[NCC[C@@H](N[*:1])C(=O)[*:2]].R.L}$PEPTIDE1,PEPTIDE1,1:R3-10:R3|PEPTIDE1,PEPTIDE1,1:R1-14:R2$$$V2.0)	6	1	0.5	0.5
CC(C)C[C@@H]1NC(=O)[C@H](CCN)NC(=O)[C@@H](CCN)NC(=O)[C@H]([C@@H](C)O)NC(=O)[C@@H]2CCNC(=O)C[C@H](NC1=O)C(=O)N[C@@H](Cc1ccc(O)cc1)C(=O)N[C@@H](CC(N)=O)C(=O)N[C@@H](CCCN)C(=O)N[C@H](CCN)C(=O)N[C@@H](CCN)C(=O)N[C@@H](Cc1c[nH]c3ccccc13)C(=O)N[C@@H](CO)C(=O)N[C@@H](C(C)(C)C)C(=O)N2 [Example 76, cyclo(-Leu-Asp-Tyr-Asn-Orn-^DDab-Dab-Trp-Ser-tBuGly-Dab-Thr-^DDab-Dab-)] (cyclo(LDYN[Orn][dDab][Dab]WS[Tle][Dab]T[dDab][Dab]); lactam 2-11)	2	1	1.5	1
CC(C)C[C@@H]1NC(=O)[C@H](CCN)NC(=O)[C@@H](CCN)NC(=O)[C@H](C(C)C)NC(=O)[C@@H]2CSSC[C@H](NC1=O)C(=O)N[C@@H](Cc1ccc(O)cc1)C(=O)N[C@@H](CC(N)=O)C(=O)N[C@@H](CCCN)C(=O)N[C@H](CCN)C(=O)N[C@@H](CCN)C(=O)N[C@@H](Cc1c[nH]c3ccccc13)C(=O)N[C@@H](CO)C(=O)N[C@@H](Cc1ccc(O)cc1)C(=O)N2 [Example 51, cyclo(-Leu-Cys-Tyr-Asn-Orn-^DDab-Dab-Trp-Ser-Tyr-Cys-Val-^DDab-Dab-)] (HELM PEPTIDE1{C.V.[NCC[C@@H](N[*:1])C(=O)[*:2]].[Dab].L.C.Y.N.[Orn].[NCC[C@@H](N[*:1])C(=O)[*:2]].[Dab].W.S.Y}$PEPTIDE1,PEPTIDE1,1:R3-6:R3|PEPTIDE1,PEPTIDE1,1:R1-14:R2$$$V2.0)	2	0.75	0.75	0.75
CC(C)C[C@@H]1NC(=O)[C@H](CCCNC(=N)N)NC(=O)[C@@H](CCN)NC(=O)[C@H](C(C)C)NC(=O)[C@@H]2CSSC[C@H](NC1=O)C(=O)N[C@@H](C(C)C)C(=O)N[C@@H](CC(N)=O)C(=O)N[C@@H](CCCN)C(=O)N[C@H](CCN)C(=O)N[C@@H](CCN)C(=O)N[C@@H](Cc1c[nH]c3ccccc13)C(=O)N[C@@H](CO)C(=O)N[C@@H](Cc1ccc(O)cc1)C(=O)N2 [Example 18, cyclo(-Leu-Cys-Val-Asn-Orn-^DDab-Dab-Trp-Ser-Tyr-Cys-Val-^DDab-Arg-)] (HELM PEPTIDE1{C.V.N.[Orn].[NCC[C@@H](N[*:1])C(=O)[*:2]].[Dab].W.S.Y.C.V.[NCC[C@@H](N[*:1])C(=O)[*:2]].R.L}$PEPTIDE1,PEPTIDE1,1:R3-10:R3|PEPTIDE1,PEPTIDE1,1:R1-14:R2$$$V2.0)	8	0.5	0.25	0.5
CC(C)C[C@@H]1NC(=O)[C@H](CCCNC(=N)N)NC(=O)[C@@H](CCN)NC(=O)[C@H](C(C)C)NC(=O)[C@@H]2CSSC[C@H](NC1=O)C(=O)N[C@@H](Cc1ccc(O)cc1)C(=O)N[C@@H](CN)C(=O)N[C@@H](CCCN)C(=O)N[C@H](CCN)C(=O)N[C@@H](CCN)C(=O)N[C@@H](Cc1c[nH]c3ccccc13)C(=O)N[C@@H](CO)C(=O)N[C@@H](Cc1ccc(O)cc1)C(=O)N2 [Example 72, cyclo(-Leu-Cys-Tyr-Dap-Orn-^DDab-Dab-Trp-Ser-Tyr-Cys-Val-^DDab-Arg-)] (cyclo(CV[dDab]RLCY[Dap][Orn][dDab][Dab]WSY); disulfide 1-6)	3	0.5	0.625	0.75
